Laboratory results: the kinase profiling compilation of Christmann-Franck et al. (2016)

Legend:
Assay in all cases: radiometric filter-binding kinase assay, Kinase HotSpot
Details in all cases: compound 0.5 µM; ATP 10 µM
ERBB2 (human) = ERBB2 (human) (UniProt P04626)
STK3 (human) = STK3 (human) (UniProt Q13188)
PRKCB1 (human) = PRKCB1 (human) (UniProt P05771)
CAMK1 (human) = CAMK1 (human) (UniProt Q14012)
STK38 (human) = STK38 (human) (UniProt Q15208)
STK25 (human) = STK25 (human) (UniProt O00506)
PRKD2 (human) = PRKD2 (human) (UniProt Q9BZL6)
NEK1 (human) = NEK1 (human) (UniProt Q96PY6)
PRKCI (human) = PRKCI (human) (UniProt P41743)
DAPK2 (human) = DAPK2 (human) (UniProt Q9UIK4)
RPS6KA3 KD1 KD2 (human) = RPS6KA3 KD1 KD2 (human) (UniProt P51812)
MAPK10 (human) = MAPK10 (human) (UniProt P53779)
CHEK1 (human) = CHEK1 (human) (UniProt O14757)
RET (human) = RET (human) (UniProt P07949)
ULK3 (human) = ULK3 (human) (UniProt Q6PHR2)
MKNK2 (human) = MKNK2 (human) (UniProt Q9HBH9)
EPHA3 (human) = EPHA3 (human) (UniProt P29320)
YES1 (human) = YES1 (human) (UniProt P07947)
Chain of YES1 (human) (P07947 whole entry, looked up): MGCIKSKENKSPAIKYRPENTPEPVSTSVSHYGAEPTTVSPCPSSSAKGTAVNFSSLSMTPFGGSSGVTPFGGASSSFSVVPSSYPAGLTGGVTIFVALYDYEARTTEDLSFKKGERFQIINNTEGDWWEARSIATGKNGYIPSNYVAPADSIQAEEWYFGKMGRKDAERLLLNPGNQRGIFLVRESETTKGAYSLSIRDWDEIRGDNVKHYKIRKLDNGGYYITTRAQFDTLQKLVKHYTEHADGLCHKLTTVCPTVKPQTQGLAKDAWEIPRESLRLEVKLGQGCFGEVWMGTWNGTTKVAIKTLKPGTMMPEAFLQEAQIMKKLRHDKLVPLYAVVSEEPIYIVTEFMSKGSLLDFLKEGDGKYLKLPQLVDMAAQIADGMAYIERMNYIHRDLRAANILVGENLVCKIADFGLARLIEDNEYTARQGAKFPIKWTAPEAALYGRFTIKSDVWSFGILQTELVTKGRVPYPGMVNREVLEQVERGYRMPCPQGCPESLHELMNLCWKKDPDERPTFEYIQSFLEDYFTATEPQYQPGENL

TYRO3 (human) = TYRO3 (human) (UniProt Q06418)
MAPKAPK5 (human) = MAPKAPK5 (human) (UniProt Q8IW41)
MYLK2 (human) = MYLK2 (human) (UniProt Q9H1R3)
ACVR1B (human) = ACVR1B (human) (UniProt P36896)
MYLK (human) = MYLK (human) (UniProt Q15746)
Chain of MYLK (human) (Q15746 whole entry, looked up): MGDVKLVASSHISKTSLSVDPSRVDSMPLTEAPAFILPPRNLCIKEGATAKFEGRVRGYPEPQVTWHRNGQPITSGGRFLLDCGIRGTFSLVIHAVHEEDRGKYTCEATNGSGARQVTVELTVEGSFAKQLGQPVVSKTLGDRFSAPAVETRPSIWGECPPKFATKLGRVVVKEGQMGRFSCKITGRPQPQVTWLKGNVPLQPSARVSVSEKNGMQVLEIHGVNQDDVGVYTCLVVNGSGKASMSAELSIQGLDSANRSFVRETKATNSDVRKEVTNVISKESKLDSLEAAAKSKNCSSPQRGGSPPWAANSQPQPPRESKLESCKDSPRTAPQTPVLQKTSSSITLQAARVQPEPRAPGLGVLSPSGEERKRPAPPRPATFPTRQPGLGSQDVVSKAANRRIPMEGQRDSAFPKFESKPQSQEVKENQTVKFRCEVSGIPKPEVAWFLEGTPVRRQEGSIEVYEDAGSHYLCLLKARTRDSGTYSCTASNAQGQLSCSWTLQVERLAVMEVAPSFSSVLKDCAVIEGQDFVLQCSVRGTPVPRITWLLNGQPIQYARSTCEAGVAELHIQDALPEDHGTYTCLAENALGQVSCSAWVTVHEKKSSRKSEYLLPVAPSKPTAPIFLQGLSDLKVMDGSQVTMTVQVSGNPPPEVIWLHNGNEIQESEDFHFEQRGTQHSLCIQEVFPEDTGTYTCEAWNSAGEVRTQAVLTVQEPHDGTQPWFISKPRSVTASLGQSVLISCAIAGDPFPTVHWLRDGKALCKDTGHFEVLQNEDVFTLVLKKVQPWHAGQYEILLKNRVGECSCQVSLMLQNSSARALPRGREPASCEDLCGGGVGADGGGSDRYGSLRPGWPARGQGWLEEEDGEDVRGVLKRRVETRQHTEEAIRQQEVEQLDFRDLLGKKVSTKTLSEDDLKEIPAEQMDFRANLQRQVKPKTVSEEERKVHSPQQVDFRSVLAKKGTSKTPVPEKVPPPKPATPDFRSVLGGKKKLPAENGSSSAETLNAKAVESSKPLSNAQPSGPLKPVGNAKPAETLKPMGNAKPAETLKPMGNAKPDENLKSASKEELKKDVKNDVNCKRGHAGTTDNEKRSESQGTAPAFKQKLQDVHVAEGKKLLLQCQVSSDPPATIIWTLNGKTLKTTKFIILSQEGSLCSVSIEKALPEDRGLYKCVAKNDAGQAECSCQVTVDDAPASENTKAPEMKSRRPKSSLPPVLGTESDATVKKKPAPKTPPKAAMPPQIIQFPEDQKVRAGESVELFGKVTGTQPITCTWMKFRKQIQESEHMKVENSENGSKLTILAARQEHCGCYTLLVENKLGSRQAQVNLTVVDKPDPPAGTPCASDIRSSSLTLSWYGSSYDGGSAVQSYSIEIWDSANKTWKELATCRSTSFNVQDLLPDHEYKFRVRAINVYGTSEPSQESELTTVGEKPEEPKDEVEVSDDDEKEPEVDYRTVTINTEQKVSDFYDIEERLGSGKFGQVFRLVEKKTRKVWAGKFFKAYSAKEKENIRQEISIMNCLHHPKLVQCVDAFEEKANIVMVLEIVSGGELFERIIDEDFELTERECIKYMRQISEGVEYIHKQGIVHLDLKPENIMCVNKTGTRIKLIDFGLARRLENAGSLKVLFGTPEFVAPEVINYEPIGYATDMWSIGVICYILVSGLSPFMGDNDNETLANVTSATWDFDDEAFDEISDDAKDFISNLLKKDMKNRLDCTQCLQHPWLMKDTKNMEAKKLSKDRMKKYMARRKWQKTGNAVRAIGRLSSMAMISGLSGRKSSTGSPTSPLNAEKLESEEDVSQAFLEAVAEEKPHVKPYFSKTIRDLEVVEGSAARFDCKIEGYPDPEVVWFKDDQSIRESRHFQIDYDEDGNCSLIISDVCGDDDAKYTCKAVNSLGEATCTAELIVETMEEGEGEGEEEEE

MET (human) = MET (human) (UniProt P08581)
IKBKE (human) = IKBKE (human) (UniProt Q14164)
RPS6KA6 KD1 KD2 (human) = RPS6KA6 KD1 KD2 (human) (UniProt Q9UK32)
RPS6KB1 (human) = RPS6KB1 (human) (UniProt P23443)
PHKG2 (human) = PHKG2 (human) (UniProt P15735)
Chain of PHKG2 (human) (P15735 whole entry, looked up): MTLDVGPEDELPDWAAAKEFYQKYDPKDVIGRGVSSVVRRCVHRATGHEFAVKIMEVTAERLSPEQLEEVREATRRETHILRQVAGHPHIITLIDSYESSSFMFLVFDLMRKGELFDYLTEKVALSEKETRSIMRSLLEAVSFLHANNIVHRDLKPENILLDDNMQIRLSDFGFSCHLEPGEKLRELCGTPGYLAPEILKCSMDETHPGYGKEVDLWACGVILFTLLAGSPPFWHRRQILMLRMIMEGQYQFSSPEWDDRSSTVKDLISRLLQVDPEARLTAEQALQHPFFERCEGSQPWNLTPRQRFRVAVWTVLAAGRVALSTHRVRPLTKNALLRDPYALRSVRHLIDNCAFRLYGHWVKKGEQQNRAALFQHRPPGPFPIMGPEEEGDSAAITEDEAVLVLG

MINK1 (human) = MINK1 (human) (UniProt Q8N4C8)
NEK7 (human) = NEK7 (human) (UniProt Q8TDX7)
Chain of NEK7 (human) (Q8TDX7 whole entry, looked up): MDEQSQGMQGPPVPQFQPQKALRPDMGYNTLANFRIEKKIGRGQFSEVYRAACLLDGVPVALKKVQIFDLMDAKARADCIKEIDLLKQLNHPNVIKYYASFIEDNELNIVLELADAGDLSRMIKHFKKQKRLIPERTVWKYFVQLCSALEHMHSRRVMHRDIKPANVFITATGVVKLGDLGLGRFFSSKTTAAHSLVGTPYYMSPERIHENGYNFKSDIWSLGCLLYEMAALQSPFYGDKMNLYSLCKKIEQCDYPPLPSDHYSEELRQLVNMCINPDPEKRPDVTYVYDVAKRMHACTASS

GSK3B (human) = GSK3B (human) (UniProt P49841)
MAPK11 (human) = MAPK11 (human) (UniProt Q15759)
Chain of MAPK11 (human) (Q15759 whole entry, looked up): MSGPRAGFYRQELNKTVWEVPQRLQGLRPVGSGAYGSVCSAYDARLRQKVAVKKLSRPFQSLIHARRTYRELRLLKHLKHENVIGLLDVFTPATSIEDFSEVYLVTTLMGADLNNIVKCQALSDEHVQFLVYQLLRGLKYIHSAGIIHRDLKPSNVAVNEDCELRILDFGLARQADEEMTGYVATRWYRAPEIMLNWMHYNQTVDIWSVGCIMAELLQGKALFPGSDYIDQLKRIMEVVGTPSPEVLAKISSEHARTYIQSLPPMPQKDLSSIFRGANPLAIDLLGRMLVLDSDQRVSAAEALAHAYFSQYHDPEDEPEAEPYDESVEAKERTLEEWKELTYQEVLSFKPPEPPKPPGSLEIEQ

AURKB (human) = AURKB (human) (UniProt Q96GD4)
EPHB3 (human) = EPHB3 (human) (UniProt P54753)
Chain of EPHB3 (human) (P54753 whole entry, looked up): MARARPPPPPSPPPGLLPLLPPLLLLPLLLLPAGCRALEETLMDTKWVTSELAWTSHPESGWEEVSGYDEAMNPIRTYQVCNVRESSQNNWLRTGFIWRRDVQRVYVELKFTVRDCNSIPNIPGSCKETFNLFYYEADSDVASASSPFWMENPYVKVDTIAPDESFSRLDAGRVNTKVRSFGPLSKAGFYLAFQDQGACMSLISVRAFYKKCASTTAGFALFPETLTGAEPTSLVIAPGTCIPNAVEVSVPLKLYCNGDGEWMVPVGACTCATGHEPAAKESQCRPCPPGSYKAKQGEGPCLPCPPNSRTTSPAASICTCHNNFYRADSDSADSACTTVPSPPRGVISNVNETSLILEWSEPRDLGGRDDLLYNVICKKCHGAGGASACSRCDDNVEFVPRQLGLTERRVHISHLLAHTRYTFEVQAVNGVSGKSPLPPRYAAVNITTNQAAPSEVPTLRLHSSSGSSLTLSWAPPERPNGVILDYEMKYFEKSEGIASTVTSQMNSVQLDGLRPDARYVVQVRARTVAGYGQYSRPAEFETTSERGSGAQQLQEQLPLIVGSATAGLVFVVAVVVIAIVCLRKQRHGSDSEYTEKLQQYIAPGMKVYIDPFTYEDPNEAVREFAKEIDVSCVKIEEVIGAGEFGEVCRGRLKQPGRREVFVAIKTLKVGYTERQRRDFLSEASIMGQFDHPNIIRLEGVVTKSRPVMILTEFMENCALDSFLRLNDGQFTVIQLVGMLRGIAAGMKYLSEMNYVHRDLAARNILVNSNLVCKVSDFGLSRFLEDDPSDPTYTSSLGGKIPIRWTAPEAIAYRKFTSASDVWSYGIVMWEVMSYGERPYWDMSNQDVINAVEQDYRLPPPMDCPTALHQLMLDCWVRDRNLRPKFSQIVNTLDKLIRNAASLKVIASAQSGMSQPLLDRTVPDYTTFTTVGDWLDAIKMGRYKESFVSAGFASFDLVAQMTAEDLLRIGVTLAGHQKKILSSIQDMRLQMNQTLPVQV

MLTK (human) = MLTK (human) (UniProt Q9NYL2)
IRAK1 (human) = IRAK1 (human) (UniProt P51617)
MST4 (human) = MST4 (human) (UniProt Q9P289)
CLK2 (human) = CLK2 (human) (UniProt P49760)
PLK1 (human) = PLK1 (human) (UniProt P53350)
PNCK (human) = PNCK (human) (UniProt Q6P2M8)
PAK4 (human) = PAK4 (human) (UniProt O96013)
FGFR1 (human) = FGFR1 (human) (UniProt P11362)

Chain of STK3 (human) (Q13188 whole entry, looked up): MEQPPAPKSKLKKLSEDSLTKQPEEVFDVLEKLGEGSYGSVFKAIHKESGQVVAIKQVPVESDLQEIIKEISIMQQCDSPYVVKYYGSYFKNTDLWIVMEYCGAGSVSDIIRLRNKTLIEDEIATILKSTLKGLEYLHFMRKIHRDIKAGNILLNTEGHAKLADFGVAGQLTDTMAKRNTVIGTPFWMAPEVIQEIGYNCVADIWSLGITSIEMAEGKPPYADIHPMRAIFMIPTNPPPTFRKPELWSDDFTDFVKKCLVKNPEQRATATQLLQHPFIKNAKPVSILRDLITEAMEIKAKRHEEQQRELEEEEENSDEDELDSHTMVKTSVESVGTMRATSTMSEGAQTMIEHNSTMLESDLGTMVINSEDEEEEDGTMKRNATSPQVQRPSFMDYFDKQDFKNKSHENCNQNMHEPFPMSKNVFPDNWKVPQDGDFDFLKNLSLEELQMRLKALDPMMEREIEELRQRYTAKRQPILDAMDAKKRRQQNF

How did the residual activity (ERBB2 (human)) turn out when `CCCC(=O)Oc1ccc2[nH]c(C(=O)c3cc4ccccc4[nH]3)cc2c1` was run?
Its residual activity is 85.9%.

And the residual activity (STK3 (human))?
The residual activity was 87%.

What about the residual activity (PRKCB1 (human)) of the same molecule?
Its residual activity is 97.3%.

And the residual activity (CAMK1 (human))?
Its residual activity is 98.8%.

And the residual activity (STK38 (human))?
The residual activity was 96.9%.

And the residual activity (STK25 (human))?
The residual activity was 94.5%.

And the residual activity (PRKD2 (human))?
Its residual activity is 91.7%.

And the residual activity (NEK1 (human))?
Its residual activity is 94.3%.

And the residual activity (PRKCI (human))?
Its residual activity is 99.2%.

And the residual activity (DAPK2 (human))?
The residual activity was 88.4%.

What about the residual activity (RPS6KA3 KD1 KD2 (human)) of the same molecule?
The residual activity was 97.5%.

And the residual activity (MAPK10 (human))?
The residual activity was 100%.

And the residual activity (CHEK1 (human))?
The residual activity was 89.7%.

And the residual activity (RET (human))?
The residual activity was 100%.

And the residual activity (ULK3 (human))?
The residual activity was 89.5%.

And the residual activity (MKNK2 (human))?
The residual activity was 105%.

And the residual activity (EPHA3 (human))?
The residual activity was 96.8%.

And the residual activity (YES1 (human))?
Its residual activity is 84.4%.

What about the residual activity (TYRO3 (human)) of the same molecule?
Its residual activity is 101%.

And the residual activity (MAPKAPK5 (human))?
The residual activity was 101%.

And the residual activity (MYLK2 (human))?
The residual activity was 98.2%.

And the residual activity (ACVR1B (human))?
The residual activity was 98.9%.

What about the residual activity (MYLK (human)) of the same molecule?
The residual activity was 102%.

And the residual activity (MET (human))?
Its residual activity is 103%.

And the residual activity (IKBKE (human))?
The residual activity was 91.4%.

What about the residual activity (RPS6KA6 KD1 KD2 (human)) of the same molecule?
The residual activity was 95.4%.

And the residual activity (RPS6KB1 (human))?
Its residual activity is 94.5%.

And the residual activity (PHKG2 (human))?
Its residual activity is 117%.

What about the residual activity (MINK1 (human)) of the same molecule?
Its residual activity is 93.8%.

And the residual activity (NEK7 (human))?
The residual activity was 95.5%.

And the residual activity (GSK3B (human))?
Its residual activity is 94%.

What about the residual activity (MAPK11 (human)) of the same molecule?
Its residual activity is 87.7%.

What about the residual activity (AURKB (human)) of the same molecule?
Its residual activity is 97.1%.

And the residual activity (EPHB3 (human))?
The residual activity was 94.2%.

And the residual activity (MLTK (human))?
Its residual activity is 104%.

And the residual activity (IRAK1 (human))?
Its residual activity is 90.5%.

And the residual activity (MST4 (human))?
The residual activity was 94.8%.

What about the residual activity (CLK2 (human)) of the same molecule?
Its residual activity is 94.3%.

What about the residual activity (PLK1 (human)) of the same molecule?
Its residual activity is 101%.

And the residual activity (PNCK (human))?
The residual activity was 99.4%.

And the residual activity (PAK4 (human))?
Its residual activity is 87.4%.

What about the residual activity (FGFR1 (human)) of the same molecule?
Its residual activity is 96%.

What does the source list for `CNc1cc2c(Nc3cccc(Br)c3)ncnc2cn1`?
residual activity (ERBB2 (human)): 28.9%; residual activity (STK3 (human)): 99.9%; residual activity (PRKCB1 (human)): 95.3%; residual activity (CAMK1 (human)): 92.3%; residual activity (STK38 (human)): 98.5%; residual activity (STK25 (human)): 102%; residual activity (PRKD2 (human)): 86.4%; residual activity (NEK1 (human)): 70.3%; residual activity (PRKCI (human)): 96.4%; residual activity (DAPK2 (human)): 136%; residual activity (RPS6KA3 KD1 KD2 (human)): 86.6%; residual activity (MAPK10 (human)): 96.1%; residual activity (CHEK1 (human)): 108%; residual activity (RET (human)): 78.5%; residual activity (ULK3 (human)): 95.8%; residual activity (MKNK2 (human)): 32.3%; residual activity (EPHA3 (human)): 96.1%; residual activity (YES1 (human)): 74.7%; residual activity (TYRO3 (human)): 98.8%; residual activity (MAPKAPK5 (human)): 99.3%; residual activity (MYLK2 (human)): 97.3%; residual activity (ACVR1B (human)): 97.7%; residual activity (MYLK (human)): 79.5%; residual activity (MET (human)): 106%; residual activity (IKBKE (human)): 87.1%; residual activity (RPS6KA6 KD1 KD2 (human)): 81.8%; residual activity (RPS6KB1 (human)): 97.4%; residual activity (PHKG2 (human)): 113%; residual activity (MINK1 (human)): 91.9%; residual activity (NEK7 (human)): 90.4%; residual activity (GSK3B (human)): 89.6%; residual activity (MAPK11 (human)): 115%; residual activity (AURKB (human)): 76.3%; residual activity (EPHB3 (human)): 92.7%; residual activity (MLTK (human)): 82.3%; residual activity (IRAK1 (human)): 85.2%; residual activity (MST4 (human)): 109%; residual activity (CLK2 (human)): 88.3%; residual activity (PLK1 (human)): 93.5%; residual activity (PNCK (human)): 100%; residual activity (PAK4 (human)): 93%; residual activity (FGFR1 (human)): 96.5%
